The values that follow are results of earlier work, collected in US20070218155A1, “Methods and compositions for treating dyslipidaemia” (priority 2004, published 2007).

The conditions of data set [1]: literature statement; cited from earlier work.
For the next data set, the target named is T1, HMG CoA reductase (Homo sapiens, UniProt P04035).
T1 construct: host or cells: HepG2
T1 sequence (P04035 1-888): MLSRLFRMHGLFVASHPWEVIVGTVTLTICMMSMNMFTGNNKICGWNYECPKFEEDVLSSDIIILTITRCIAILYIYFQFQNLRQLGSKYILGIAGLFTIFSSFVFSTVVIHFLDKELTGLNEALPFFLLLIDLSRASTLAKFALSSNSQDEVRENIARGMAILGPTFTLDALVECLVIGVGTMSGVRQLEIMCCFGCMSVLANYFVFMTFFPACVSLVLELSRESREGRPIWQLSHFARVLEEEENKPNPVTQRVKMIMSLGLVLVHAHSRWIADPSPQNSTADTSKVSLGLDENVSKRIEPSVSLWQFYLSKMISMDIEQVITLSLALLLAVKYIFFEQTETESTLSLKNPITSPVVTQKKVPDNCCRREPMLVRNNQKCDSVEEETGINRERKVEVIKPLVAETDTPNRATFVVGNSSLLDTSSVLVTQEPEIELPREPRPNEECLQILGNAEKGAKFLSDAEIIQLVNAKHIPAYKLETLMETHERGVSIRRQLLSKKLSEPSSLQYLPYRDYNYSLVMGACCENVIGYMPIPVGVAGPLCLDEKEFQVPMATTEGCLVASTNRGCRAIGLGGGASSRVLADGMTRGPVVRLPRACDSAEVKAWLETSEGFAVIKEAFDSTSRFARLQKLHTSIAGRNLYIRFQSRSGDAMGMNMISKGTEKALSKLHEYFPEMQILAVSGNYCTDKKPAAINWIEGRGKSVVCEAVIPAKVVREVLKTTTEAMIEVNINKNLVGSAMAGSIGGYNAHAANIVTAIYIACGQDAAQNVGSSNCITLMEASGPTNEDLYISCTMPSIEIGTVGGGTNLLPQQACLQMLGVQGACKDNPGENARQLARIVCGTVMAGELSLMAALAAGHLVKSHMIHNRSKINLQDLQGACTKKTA
To be noted: HepG2 cells; comparison value; cited from earlier work.

The subject of data set [2] is DGAT activity in intact Raji cells. To be noted: Tabata et al.; cited from earlier work.

On to `CC(C)=CCc1c(O)cc(O)c2c1O[C@H](c1ccc(O)cc1)CC2=O` [8-prenylnaringenin, 8-prenylnaringenin], for which the estrogenic activity result in data set [1] was “potent estrogenic activity”.
Turning to `CC(C)c1c(C(=O)Nc2ccccc2)c(-c2ccccc2)c(-c2ccc(F)cc2)n1CC[C@@H](O)C[C@@H](O)CC(=O)O` [Atorvastatin], the “inhibition of HMG CoA reductase” value on HMG CoA reductase was “about 96%”.
`COc1cc(O)c(CC=C(C)C)c(O)c1C(=O)/C=C/c1ccc(O)cc1` [xanthohumol]: the “inhibition of triacylglycerol formation / DGAT activity in intact Raji cells” value in data set [2] was “inhibited DGAT activity specifically in human cells”. Also, in data set [1], the estrogenic activity result is recorded as “does not exhibit estrogenic activity”.
